From US7439040B2, “Protease regulator screening assay” (Novartis Vaccines and Diagnostics, Inc., priority 1996, dated 2008)
“And” between values parts separate entries of the source, which are not always exact repeats. Equal entries are not always repeated.

Legend:
Type in all cases: biochemical
HCV protease [1] = target: T1, HCV protease (Hepatitis C virus genotype 1a, UniProt P26664); experiment: NS5A/5B as substrate to screen HCV protease inhibitor candidates; conditions: control setup, pro A-NS5 substrate
T1 construct: Peptide 4A, a co-factor of the NS3 HCV protease; made in house
Protocol: The substrate polypeptide, (10 μg/well) in 200 μl was added to a human IgG coated plate and incubated for one hour. The plate was washed five times with wash buffer. The inhibitor, if any, was pre-incubated (diluted to 1 uM) with HCV protease, NS4A (0.2 uM) for one hour at room temperature. Peptide 4A, a co-factor of the NS3 HCV protease was added in different concentrations to all wells containing the protease mixture (20X concentration is 4 μM). […] The final concentration of the NS4A in each well was 4 μM. The plate was washed five times with wash buffer. Mouse anti-FLAG monoclonal antibody in the amount of 200 μl (1:200d from stock solution) was added to the designated wells and incubated one hour at 37° C. The plate was washed five times with wash buffer. Affinity purified goat anti-mouse (H+L)-HRP (Fab′)2 conjugate (1:5000d) in the amount of 200 μl was added to all the reaction wells except the blank well and incubated one hour at 37° C. The plate was washed five times with wash buffer. Then the plate was developed with OPD substrate for 30 minutes at room temperature. The plate was read with a microtiter plate reader at 490/620 nm.
Using NS5A/5B as Substrate to Screen HCV Protease Inhibitor Candidates
A target polypeptide was prepared having an anchor region, a linker region, a protease target site of HCV NS5A/5B, another linker region, and a FLAG epitope tag region. […]

NS3 HCV protease = target: T2, NS3 HCV protease (Hepatitis C virus genotype 1a, UniProt P26664); experiment: HCV protease inhibitor screening assay using NS4B/5A cleavage site with co-factor peptide 4A; conditions: DCIC 1 μM, duplicates
T2 construct: Peptide 4A, a co-factor of the NS3 HCV protease; made in house
Protocol: The HCV Protease Inhibitor Screening Assay Using NS4B/5A Cleavage Site
Plate: Human IgG coated on HB COSTAR plate, 200 ng/well
The protease: Ni-13 (F21) diluted 1:300 in the enzyme stock buffer
The protease inhibitor: diluted to 1 mM in the enzyme stock buffer
A substrate polypeptide was prepared having an anchor region (protein A), a linker, two protease target sites of NS4B/5A, another linker, and a FLAG epitope tag. The target polypeptide was expressed in sufficient quantities to conduct the assay.
[…] The plate was washed five times with wash buffer. The inhibitor, if any, was pre-incubated (diluted to 1 uM) with HCV protease, NS4A (0.2 uM) for one hour at room temperature. Peptide 4A, a co-factor of the NS3 HCV protease was added in different concentrations to all wells containing the protease mixture (20X concentration is 4 μM). The above mixture was transferred to the plate coated with IgG-4B/5A complex and incubated overnight at room temperature (about 20° C. −25° C.). The final concentration of the NS4A in each well was 4 μM. The plate was washed five times with wash buffer. Mouse anti-FLAG monoclonal antibody in the amount of 200 μl (1:200d from stock solution) was added to the designated wells and incubated one hour at 37° C. The plate was washed five times with wash buffer. Affinity purified goat anti-mouse (H+L)-HRP (Fab′)2 conjugate (1:5000d) in the amount of 200 μl was added to all the reaction wells except the blank well and incubated one hour at 37° C. The plate was washed five times with wash buffer. Then the plate was developed with OPD substrate for 30 minutes at room temperature. The plate was read with a microtiter plate reader at 490/620 nm.

HCV protease [2] = target: T1, HCV protease; experiment: HCV protease inhibitor screening assay using NS5A/5B cleavage site (pro A-NS5 substrate, anti-FLAG/HRP OD readout)
Excerpt: The HCV Protease Inhibitor Screening Assay Using NS5A/5B as Cleavage Site Expression Construct and its Encoded Polypeptide
A fragment encoding HCV NS5 peptide protease target site was inserted in frame into the polylinker region of pEZZ18 so that it is connected at the C-terminal region of Protein A. The NS5 peptide protease target site includes the NS5A and NS5B cleavage site, i.e., amino acids 2420 and 2421, 7 amino acids at the N-terminal side of the cleavage site, and 8 amino acids at the C-terminal side of the cleavage site.
Another sequence fragment encoding the FLAG tag was inserted in frame at the C-terminal end of the NS5 peptide protease target site. The sequence fragment encodes three FLAG tags alternately spaced with two 4-Glycine spacers.
Microwell plates containing 96 wells were prepared by coating the wells with IgG. Then the plates were dried. The purified protein NS5 was incubated with the dry plates for 1 hour at 37° C. to allow binding of the Protein A region of the protein to the IgG in the microwells.
Protease was prepared by elution from a nickel column. Various concentrations of HCV protease were prepared. The protease was incubated with and without a known protease inhibitor, DCIC (di-chloro-iso-coumarin). The incubation was for 1 hour at room temperature. Subsequently the protease was transferred to the coated plates. […]
Diluted monoclonal anti-FLAG mouse antibodies (available from Kodak) were added to the HCV protease treated plates and incubated with the plates for 1 hour at 37° C. The plates were subsequently washed and incubated with affinity purified goat anti-mouse-HRP (horse radish peroxidase) conjugates for 1 hour at 37° C. Then the plates were washed, and incubated with a developer such as o-phenylenediamine dihydrochloride (OPD). The optical density (OD) was determined at 492 and 620 nm settings.

HCV protease [3] = target: T1, HCV protease; experiment: Short incubation time, NS5A/5B substrate HCV protease inhibitor screen; conditions: control setup; duplicates; listed as control 4
Protocol: Using a Short Incubation Time and NS5A/5B as a Substrate to Screen HCV Protease Inhibitors
A target polypeptide was prepared having an anchor region (protein A) molecule, a linker, a protease target site of HCV NS5A/5B, another linker, and a FLAG epitope tag region. The target polypeptide was expressed in sufficient quantities to conduct the assay.
The inhibitor was pre-incubated (diluted to 1 μM) with HCV protease (0.2 μM) for 1 hour at room temperature. A solution of NS5A/5B substrate (20 μg/well) was added to the pre-incubated protease and protease inhibitor mixture, and the total mixture was incubated for 15 minutes. The mixture was transferred to a human IgG coated plate and incubated for 1 hour at 37° C. The plate was washed five times with wash buffer.
Two hundred microliter of mouse anti-FLAG monoclonal antibody (1:200d from stock solution) was added to the designated wells and incubated for 1 hour at 37° C. The plate was washed five times with wash buffer. Affinity purified goat anti-mouse (H+L)-HRPO (Fab′)2 conjugate (1:5000d) in the amount of 200 μl was added to all the reaction wells except the blank well and incubate 1 hour at 37° C. The plate was washed five times with wash buffer. The plate was developed with OPD substrate for 30 minutes at room temperature. The plate was read with a microtiter plate reader at 490/620 nm.

[4] = protease, substrate and inhibitor preincubated overnight, pools 1:100 D

T1 sequence (P26664 1027-1657): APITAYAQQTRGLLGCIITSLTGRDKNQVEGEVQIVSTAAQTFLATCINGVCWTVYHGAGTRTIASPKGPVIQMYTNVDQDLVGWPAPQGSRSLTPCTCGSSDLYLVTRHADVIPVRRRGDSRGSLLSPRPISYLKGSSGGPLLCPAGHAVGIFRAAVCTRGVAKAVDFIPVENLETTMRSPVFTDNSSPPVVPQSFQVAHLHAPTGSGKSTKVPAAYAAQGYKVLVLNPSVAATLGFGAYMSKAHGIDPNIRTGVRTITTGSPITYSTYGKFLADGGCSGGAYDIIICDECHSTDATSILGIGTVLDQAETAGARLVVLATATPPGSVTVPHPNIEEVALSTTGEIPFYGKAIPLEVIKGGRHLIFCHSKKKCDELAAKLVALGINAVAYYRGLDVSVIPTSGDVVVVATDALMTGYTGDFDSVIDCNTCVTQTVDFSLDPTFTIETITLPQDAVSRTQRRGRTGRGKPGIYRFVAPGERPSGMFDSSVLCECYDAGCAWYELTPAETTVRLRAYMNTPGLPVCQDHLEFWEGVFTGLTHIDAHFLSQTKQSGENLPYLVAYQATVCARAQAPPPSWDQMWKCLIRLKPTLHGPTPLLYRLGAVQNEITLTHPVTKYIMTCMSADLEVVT
T2 sequence (P26664 1027-1657): as above

Compound: O=c1oc(Cl)c(Cl)c2ccccc12 [DCIC, di-chloro-iso-coumarin]
- OD w/ DMSO 1 μl (HCV protease [1]; with DMSO 1 μl): 2.596
- OD w/o DMSO (HCV protease [1]; without DMSO): 2.915
- OD of the reaction product (NS3 HCV protease; substrate 4B/5A 5 μg/well, 10X peptide 4A): 1.435 and 1.328
- OD of the reaction product (NS3 HCV protease; substrate 4B/5A 5 μg/well, 20X peptide 4A): 1.374 and 1.373
- OD of the reaction product (NS3 HCV protease; substrate 4B/5A 5 μg/well, no peptide 4A): 1.400 and 1.491
- OD of the reaction product (NS3 HCV protease; substrate 4B/5A 10 μg/well, 10X peptide 4A): 1.729 and 1.715
- OD of the reaction product (NS3 HCV protease; substrate 4B/5A 10 μg/well, 20X peptide 4A): 1.584 and 1.690
- OD of the reaction product (NS3 HCV protease; substrate 4B/5A 10 μg/well, no peptide 4A): 1.769 and 1.686
- OD (HCV protease [2]; preincubation of protease, substrate and inhibitor overnight, pro A-NS5 10 μg/ml, protease 1:100 D): 1.578
- OD (HCV protease [2]; preincubation of protease, substrate and inhibitor overnight, pro A-NS5 10 μg/ml, protease 1:200 D): 1.458
- OD (HCV protease [2]; preincubation of protease, substrate and inhibitor overnight, pro A-NS5 10 μg/ml, protease 1:500 D): 1.083
- OD, Exp. 1 (HCV protease [2]; [4]): 1.235
- OD, Exp. 2 (HCV protease [2]; [4]): 0.768
- OD (HCV protease [2]; substrate and protease incubated for 2 hours, pro A-NS5 10 μg/ml, protease 1:100 D): 1.137
- OD (HCV protease [2]; substrate and protease incubated for 2 hours, pro A-NS5 10 μg/ml, protease 1:200 D): 1.235
- OD (HCV protease [2]; substrate and protease incubated for 2 hours, pro A-NS5 10 μg/ml, protease 1:500 D): 0.503
- OD (HCV protease [2]; substrate and protease incubated for 2 hours, proA-NS5 2 μg/ml, protease 1:100 D): 0.627
- OD (HCV protease [2]; substrate and protease incubated for 2 hours, proA-NS5 2 μg/ml, protease 1:200 D): 0.631
- OD (HCV protease [2]; substrate and protease incubated for 2 hours, proA-NS5 2 μg/ml, protease 1:500 D): 0.545
- OD (HCV protease [2]; substrate and protease incubated overnight, pro A-NS5 10 μg/ml, protease 1:100 D): 0.899
- OD (HCV protease [2]; substrate and protease incubated overnight, pro A-NS5 10 μg/ml, protease 1:200 D): 0.998
- OD (HCV protease [2]; substrate and protease incubated overnight, pro A-NS5 10 μg/ml, protease 1:500 D): 0.887
- OD (HCV protease [2]; substrate and protease incubated overnight, proA-NS5 2 μg/ml, protease 1:100 D): 0.449
- OD (HCV protease [2]; substrate and protease incubated overnight, proA-NS5 2 μg/ml, protease 1:200 D): 0.467
- OD (HCV protease [2]; substrate and protease incubated overnight, proA-NS5 2 μg/ml, protease 1:500 D): 0.328
- OD, 15 minutes preincubation (HCV protease [3]): 1.563 and 1.590
- OD, 1 hour preincubation (HCV protease [3]): 1.991 and 2.152
